Assay results reported in US20190248834A1, “ENDOMORPHIN-2, TETRAPEPTIDE DERIVATIVES THEREOF, AND USES THEREOF” (priority 2016, published 2019).
Non-standard residues stand in square brackets, D forms with d. pGlu = O=C1CC[C@@H](C(=O)O)N1

What was measured:
Type in all cases: in vivo, human
[1] = system: pain from MTSS; experiment: Example 22: analgesic effect on medial tibial stress syndrome, topical
Description: A small statured person, caretaker of an over-weight disabled elderly person, every evening suffers pain from MTSS of the left lower leg that is due to repeated use of the left leg to lift their patient throughout the day. Their sleeping has been repeatedly disturbed by the pain. […] They followed this sequence of procedures daily for one week work shift with the same result of rapid absolute relief of pain. During the week of being off from work, the MTSS is absent.

[2] = system: disabling pain in hands and fingers after exertion; experiment: Example 25: analgesic effect on severe muscle soreness, topical; conditions: 1% (w/v) in WEP442, topical
Description: A subject had disabling pain in their hands and fingers the next morning after a day of intense exertion of the hands and fingers from using hand screw drivers over a 12-hour period during a building construction job. The intensity of pain was so great that they were unable to lace up their work boots.

[3] = system: traumatized right big toe; experiment: Example 34: analgesic effect on pain in big toe following trauma, topical; conditions: 1% (w/v) in WEP442, topical
Protocol: A subject, traumatized their right big toe while repositioning heavy furniture, and experienced disabling persistent pain of that toe. About 10 minutes after the trauma occurred, they topically applied a composition containing 1% (w/v) of N-Ac-Tyr-Pro-Phe-Phe-NH2 (SEQ ID NO: 23) in WEP442 to the toe.

[4] = system: mechanically induced skin pain; experiment: Example 91: experimentally induced skin pain (needle roller), topical; conditions: 1% (w/v) in WEP442, topical before and after wounding
Description: A subject, rolled onto their left forearm with forceful pressure a roller having many tiny stainless steel needles 1 mm in length, which penetrated through the epidermis causing sharp pain as well as punctate bleeding.

[5] = system: severe nauseating headache; experiment: Example 60: analgesic effect on headache due to inhalation of exhaust fumes, topical; conditions: 0.5% (w/v) in WEP442, topical
Description: A construction worker, suffered a severe nauseating headache on a day when, for about an hour, they were exposed to exhaust fumes from a gasoline motor driven dust blower early in the day. The headache persisted all day and into the evening.

[6] = system: sore subcutaneous lipomas; experiment: Example 35: analgesic effect on soreness of subcutaneous lipomas, topical; conditions: 1% (w/v) in WEP442, topical
Description: A subject with many subcutaneous lipomas on their arms, torso and thighs that often become painfully sore after being bumped against objects during the course of daily activities, topically applied to tenderly sore lipomas a composition containing 1% (w/v) N-Ac-Tyr-Pro-Phe-Phe-NH2 (SEQ ID NO: 23) in WEP442. Such applications were repeated multiple times over a period of two months.

[7] = system: jaw pain after tooth extraction; experiment: Example 28: analgesic effect on dental extraction pain, topical
Protocol: A subject had substantial pain in the left mandibular jaw that started about 3 hours after extraction of a left mandibular molar tooth. […] Only negligible discomfort was perceptible thereafter.

[8] = system: chronic subpatellar and peripheral patellar pain; experiment: Example 8: analgesic effect on knee pain, topical
Description: A subject had chronic subpatellar and peripheral patellar pain in their knees.
The subject topically applied an anhydrous composition containing 0.7% (w/v) N-Ac-Tyr-Pro-Phe-Phe-NH2 (SEQ ID NO: 23) in EP73, formulated as described in Example 2, at bedtime. The next morning, they observed about 50% relief of pain. The subject topically re-applied the same composition under a plastic film wrap for one hour, after which they observed about 95% relief of pain.

[9] = system: moderate lower back pain; experiment: Example 23: analgesic effect on lower back pain, topical; conditions: 1% (w/v) in WEP442, topical
Description: A subject, working as a house cleaner, complained of moderate lower back pain at the end of a work day.

[10] = system: stress induced headache; experiment: Example 51: analgesic effect on stress induced headache, topical
Description: The onset of the headache was associated with emotional stress. Within two hours, the intensity of the headache became almost disabling, whereupon […] applied a solution composition containing 1% (w/v) N-Pg-Ty-Pro-Phe-Phe-NH2 (SEQ ID NO: 44) in WEP442 to the entire frontal and upper facial areas. […] At that time, the solution was generously applied a second time. […] The analgesic effect was judged to be 100%.

[11] = system: restless leg syndrome; experiment: Example 75: treatment of restless leg syndrome, topical; conditions: 1% (w/v) in WEP442, topical to legs after an episode
Description: Restless leg syndrome (RLS) is a disorder in which involuntary movements of the legs occur during the sleeping hours. A subject, presented with RLS for a duration of about 4 years. The disorder in the subject had not responded to therapy with opiates, nor to a benzodiazepine medication.

[12] = system: pain in the muscles of the neck; experiment: Example 57: analgesic effect on stress pain in muscles of the neck, topical; conditions: 0.6% (w/v) in WEP442, topical
Protocol: A farmer suffered substantial pain in the muscles of their neck the day after ploughing a field for several hours. During that time, they had almost constantly strained their neck muscles looking backward to monitor the performance of the plough behind. The pain was such that it disabled them from turning their head even slightly. […] Reapplication of the solution at that time again relieved the pain for another 4 hours. With repeated applications, they were able to perform usual farm maintenance work for the entire day. After a night's rest, the pain subsided spontaneously.

[13] = system: right shoulder pain; experiment: Example 77: analgesic effect on pain from shoulder strain, topical; conditions: 0.5% (w/v) in WEP442, topical
Protocol: A subject, presented with right shoulder pain for a duration of 5 days, which developed after carrying a very heavy grocery bag for several city blocks. The pain was increased by their attempts to lift their arm to an elevated position, and further increased from rotational arm movements. […] Such relief lasted for about 6 hours, at which time re-application provided the same relief.

[14] = system: headache; experiment: Example 72: analgesic effect on migraine headache, topical; conditions: 0.5% (w/v) in WEP442, topical
Description: A subject who suffered from migraine headaches, woke up one morning with a headache, the type of which was uncertain. They topically applied to their forehead, periocular and temporal areas a composition containing 0.5% (w/v) of N-Pg-Tyr-Pro-Phe-Phe-NH2 (SEQ ID NO: 44) in WEP442.

Q: `CC(=O)N[C@@H](Cc1ccc(O)cc1)C(=O)N1CCC[C@H]1C(=O)N[C@@H](Cc1ccccc1)C(=O)N[C@@H](Cc1ccccc1)C(N)=O` [N-Ac-Tyr-Pro-Phe-Phe-NH2] was tested. Which pain relief ([1]; 1% (w/v) in WEP442, single topical application) did it give?
A: completely relieved the pain

Q: What about the “duration of pain relief” value ([1]; 1% (w/v) in WEP442, topical) of the same molecule?
A: No pain occurred until the next evening

Q: And the “time to pain relief” value ([1]; 1% (w/v) in WEP442, topical)?
A: ≤ 1 min

Q: What about the recurrence [2] of the same molecule?
A: did not recur at all

Q: What about the pain relief ([2]; hand-wash manner) of the same molecule?
A: instantaneous, complete relief of pain

Q: What about the pain relief [3] of the same molecule?
A: Complete relief of pain

Q: What about the recurrence [3] of the same molecule?
A: did not return

Q: And the “time to pain relief” value [3]?
A: 15 to 30 s

Q: What about the “effect on sharp punctate pain” value [4] of the same molecule?
A: did not prevent nor relieve the sharp punctate pain

Q: What about the pain relief [5] of the same molecule?
A: completely relieved the headache

Q: And the “time to pain relief” value [5]?
A: ≤ 2 min

Q: What about the time to relief [6] of the same molecule?
A: ≤ 1 min

Q: And the relief of soreness ([6]; repeated over two months)?
A: relieved all feelings of soreness

Q: And the “time to pain relief” value ([7]; 1% (w/v) in WEP442, topical)?
A: less than 1 minute

Q: What about the pain relief ([7]; 1% (w/v) in WEP442, topical to facial-lower jaw skin) of the same molecule?
A: complete relief of pain

Q: And the relief of pain ([8]; 0.7% (w/v) in EP73, re-applied under plastic film wrap for one hour)?
A: about 95%

Q: And the relief of pain ([8]; 0.7% (w/v) in EP73, topical at bedtime, next morning)?
A: about 50%

Q: What about the pain relief [9] of the same molecule?
A: almost complete relief of pain

Q: And the “time to pain relief” value [9]?
A: 1 to 2 min

Q: “N-Pg-Tyr-Pro-Phe-Phe-NH2 ([pGlu]YPFF-NH2; SMILES NC(=O)[C@H](Cc1ccccc1)NC(=O)[C@H](Cc1ccccc1)NC(=O)[C@@H]1CCCN1C(=O)[C@H](Cc1ccc(O)cc1)NC(=O)[C@@H]1CCC(=O)N1)” was tested. Which headache intensity ([10]; 1% (w/v) in WEP442, first application, within about 5 minutes) did it give?
A: diminished in intensity

Q: And the pain relief ([10]; 1% (w/v) in WEP442, second application, within another 5 minutes)?
A: free of all headache pain

Q: And the analgesic effect ([10]; 1% (w/v) in WEP442, topical)?
A: 100%

Q: And the “time without return of pain” value ([10]; 1% (w/v) in WEP442, topical)?
A: ≥ 24 h

Q: What about the involuntary leg movement [11] of the same molecule?
A: completely prevented further involuntary leg movement

Q: And the “duration of pain relief” value [12]?
A: about 4 hours

Q: What about the pain relief [12] of the same molecule?
A: almost completely relieved

Q: What about the “duration of pain relief” value [13] of the same molecule?
A: about 6 hours

Q: And the pain relief [13]?
A: rapid, complete relief of pain

Q: What about the headache relief [14] of the same molecule?
A: promptly relieved and did not return
